# Columns and labels:
# [1] = system: primary cortical neurons; test: Neuronal longevity in primary cortical neuron culture (LDH, propidium iodide, cleaved caspase 3); assay type: cell-based, mouse
# From the text: Primary Cortical Neuron Culture. Embryonic day 18 (E18) timed-pregnant female mice were anesthetized with CO2 and sacrificed by cervical dislocation. In a dissection hood, 24-26 embryos per experiment were collected through an incision of the mother's abdomen, taken out of the amniotic sacs and decapitated in ice cold Hank's Balanced Salt Solution (HBSS). Using fine scissors and forceps, brains were rapidly dissected and the cortex cleared from meninges and isolated under a dissection microscope. Cortices were collected in ice cold HBSS and kept on ice until all embryos had been dissected. In a tissue culture hood, HBSS was removed and the cortex tissue digested by 0.25% Trypsin-EDTA for 12 minutes at 37° C., followed by DNase1 treatment for 10 minutes at 37° C. The tissue was dissociated by serial trituration with a 25 ml serological pipette, followed by trituration with 10 ml and 5 ml serological pipettes. Cell suspension was washed once with DMEM medium, supplemented with 10% FBS and 1% penicillin/streptomycin and passed through a […] cell strainer before counted on a hemocytometer. Single cells were seeded on poly-D-lysine (0.1 mg ml-1) coated wells at a density of 1×10^6 cells per well on a 12-well plate. Cells were grown in Neurobasal medium, complemented with B27 supplement, N2 supplement, and 0.5 mM L-glutamine and maintained at 37° C. in 5% CO2 for 1 week. Cultures were treated with DMSO (0.2%), I-BET858 (1 μM, 0.2% DMSO), BDNF (50 ng/ml), or BDNF+I-BET858 for 2 and 12 h on day 7 in vitro. Cultures were washed with phosphate-buffered saline (PBS) on ice and processed for RNA isolation using TRIzol/Chloroform extraction.
# LDH Assay. LDH activity was measured using the Pierce LDH Cytotoxicity Assay Kit. Culture media was incubated with an equal volume of LDH master mix and incubated for 30 minutes at room temperature in the dark. After, the same volume of stop reagent was added and the absorbance was measured at 490 and 680 nm. Maximum LDH measurements were obtained by adding lysis buffer to release the total amount of LDH in the sample. LDH release is calculated as a percent of the maximum.
# Propidium Iodide Assay. Propidium iodide (1 mg/ml, Life Technologies #P3566) was added to each culture well at a final concentration of 0.5 μg/ml. Cultures were incubated for 30 minutes at 37 degrees then washed with PBS. Cells were then fixed with 4% paraformaldehyde in PBS for 15 minutes at room temperature. After fixation, cells were washed with PBS and then mounted using mounting media containing DAPI.
# In order to understand the effect of chronic BET inhibition on neuronal survival, primary cortical mouse neurons were cultured in the presence or absence of the brain permeable BET inhibitor IBET858 (1 μM). To quantify cell death over time, the levels of lactate dehydrogenase (LDH) were measured in culture media which is presumably released during cell death as the membranes become permeable. […] The observed decrease in LDH activity after BET inhibition occurs in a dose-dependent manner. LDH activity, which is an indirect measure of cell death, may be affected by other factors such as changes in metabolism or expression of the LDH genes. Therefore in order to confirm these findings, propidium iodide (PI) staining was used to directly quantify the number of dead neurons over time. This membrane impermeable dye increases in fluorescence 20-30 fold after intercalating DNA265. […] To give context to the magnitude of this effect on survival, this experiment was repeated with a direct comparison to the mTOR inhibitor, rapamycin (20 nM).
# [2] = system: primary microglia exposed to lipopolysaccharide (LPS); test: LPS-induced gene expression in primary microglia pretreated with IBET858; assay type: cell-based, mouse
# Protocol: Primary Microglia Culture. Postnatal day 0 C57/Bl6 mice were decapitated in ice cold HBSS. The forebrain was rapidly dissected and treated as above in order to generate a single cell suspension. 60,000 cells per cm2 were seeded in vented, Poly-D-lysine coated flasks. Mixed glial cultures were maintained in DMEM containing 10% FBS and 1% penicillin/streptomycin for 3 weeks. After three weeks, microglia were isolated by shaking the mixed glial cultures for 4 hours at 360 rpm and re-plated at density on 100,0000 cells/cm2. Cultures were given 24 hours to settle before treatment. Cultures were pre-treated for 30 minutes with either DMSO (0.01%) or 1 uM IBET858. After 30 minutes, LPS (100 ng/ml) was added to the cultures. RNA was isolated with Trizol LS according to the manufacturer's recommendations after 1, 4 and 12 hours of LPS treatment.
# To understand if BET proteins regulate the dynamic induction of pro-inflammatory gene networks, primary microglia were exposed to the bacterial cell wall component lipopolysaccharide, LPS. T, which is recognized by Tlr4, triggers a signal cascade that leads to an extensive increase in cytokine and chemokine production which causes significant damage to host tissues if left unrestrained. Nicodeme et al., “Suppression of Inflammation by a Synthetic Histone Mimic,” Nature 468:1119-1123 (2010), which is hereby incorporated by reference in its entirety. As before, microglial identity genes Tyrobp, Hexb and Trem2 were unaffected by IBET858 (FIG. 4B). As expected, LPS causes a time-dependent increase in pro-inflammatory gene expression in microglia (FIGS. 4C-4E). […] BET inhibition specifically decreases the expression of inflammatory genes (Il6, Cd33, and Nlrp3), interferon response pathway (Ifnb, Irf2/9, Mx1) and cell death mediators (Bid, Casp1/4/7/12, Traf1). […] Nicodeme et al., “Suppression of Inflammation by a Synthetic Histone Mimic,” Nature 468:1119-1123 (2010), which is hereby incorporated by reference in its entirety.
smiles,measurement,setting,value
CC(=O)N1c2ccc(-c3ccc(CN4CCCCC4)cc3)cc2[C@H](Nc2ccccc2)CC1C (stereo in doubt) [IBET858],dose dependence of decrease in LDH activity,[1],dose-dependent
same,"neuron survival over time, propidium iodide assay",[1]; 1 μM,survive significantly longer than control
same,number of cells positive for cleaved caspase 3,[1]; 1 μM,decreased
same,LDH activity in culture media over time,"[1]; 1 μM, from day 16 in vitro",significantly less LDH activity
same,"neuronal lifespan, IBET858 compared with rapamycin","[1]; IBET858 1 μM, rapamycin 20 nM",to the same extent as rapamycin if not more
same,"chemotaxis, cell proliferation and NFkB pathway genes after LPS",[2]; 1 μM,insensitive
same,"microglial identity genes Tyrobp, Hexb and Trem2 after LPS",[2]; 1 μM,unaffected
same,LPS gene induction,"[2]; 1 μM pretreatment 30 min, LPS 1 h",little effect
same,LPS induced genes inhibited / LPS induced genes,[2]; LPS 4 hours,514/960
same,LPS induced genes inhibited / LPS induced genes,[2]; LPS 12 hours,484/747
